Assay: Pharmacokinetics: toenail and plasma ravuconazole concentrations
Type: in vivo, human
Description: A Phase II clinical pharmacology study was conducted in subjects with onychomycosis of the toenail. The study investigated the pharmacokinetics, efficacy and safety of three different dosing regimens of fosravuconazole. […] The three treatment groups were as follows: • a.

[1] = fosravuconazole 100 mg (once daily dose) group
[2] = fosravuconazole 400 mg (pulse treatment) group

- time toenail ravuconazole concentrations maintained at MIC90 or higher, longer than in 400 mg (pulse treatment) group [1]: about 4 weeks
- toenail ravuconazole concentrations compared with 400 mg (pulse treatment) group (fosravuconazole 100 mg (once daily dose) group, Week 20 and onwards): fluctuated at higher levels
- toenail ravuconazole concentrations, arithmetic mean and geometric mean (fosravuconazole 200 mg (pulse treatment) group): ≤ 60 ng/mL
Structure (SMILES): C[C@@H](c1nc(-c2ccc(C#N)cc2)cs1)[C@](O)(Cn1cncn1)c1ccc(F)cc1F [ravuconazole, 4-[2-[(2R,3R)-3-(2,4-difluorophenyl)-3-hydroxy-4-(1,2,4-triazol-1-yl)butan-2-yl]-1,3-thiazol-4-yl]benzonitrile]
- toenail ravuconazole concentrations versus MIC90, arithmetic mean [1]: exceeded MIC90 in arithmetic mean at Week 8 and maintained at MIC90 or higher until Week 28
- toenail ravuconazole concentrations versus MIC90, geometric mean [1]: exceeded MIC90 at Week 12 after the study treatment initiation and maintained at MIC90 or higher until Week 24
- toenail ravuconazole concentrations versus MIC90, arithmetic mean [2]: exceeded MIC90 in arithmetic mean at Week 8 after the study treatment initiation and maintained at MIC90 or higher until Week 24
- toenail ravuconazole concentrations versus MIC90, geometric mean [2]: exceeded MIC90 at Week 12 after the study treatment initiation and maintained at MIC90 or higher until Week 24
